Columns and labels:
APP translation in SN = test: 35S-Met labeling and immunoprecipitation of newly synthesized APP in synaptoneurosomes; assay type: cell-based, mouse; settings: WT SN, 40 μM anisomycin + 100 μM DHPG, 15 min
Protocol: WT and KO SNs (450 μl) were mixed with 25 μl Redivue Pro-Mix-L [^35S] for 5 min prior to stimulation with 25 μl 2 mM DHPG. Samples were flash frozen at the indicated times. To analyze new protein synthesis, SN lysates were cleared of free isotope, Percoll®, and sucrose by purification with the PAGEprep Advance kit according to the manufacturer's directions. Protein concentrations were determined by the BCA assay, and 15 μg protein was denatured and loaded per lane on 12% SDS gels for content analysis. Gels were dried and exposed to a phosphorimager screen to identify the results of these assays.
To specifically analyze APP synthesis, WT and KO SN lysates (500 μl) were immunoprecipitated with APP antibody. Briefly, SN lysates were precleared with protein A magnetic beads in 1 ml volumes containing 500 μl SNs, 500 μl 2×IP buffer (20 mM HEPES (pH 7.4), 400 mM NaCl, 60 mM EDTA (pH 8), and 2% Triton X-100), protease inhibitor cocktail, and 100 μl packed fresh protein A magnetic beads. For the immunoprecipitations, 10 μg anti-APP antibody (Zymed catalog number 51-2700) and fresh protein A magnetic beads were added and mixed overnight at 4° C. The beads were washed three times with IP buffer, and the final, washed pellets were suspended in 40 μl 2×SDS sample buffer and boiled for 5 min; the proteins were then separated on 12% SDS gels. The gels were transferred to a nitrocelluose membrane, dried, exposed to a phosphorimager screen, and scanned on a STORM 860 phosphorimager (Molecular Dynamics http://www6.amershambiosciences.com). APP bands at 120 kDa were quantitated with ImageQuant software (GE Healthcare Life Sciences, http://www4.amershambiosciences.com).
For mGluR5 inhibitor studies, SNs (425 μl) were preincubated with 25 μl anisomycin (40 μM final concentration) or MPEP (10 μM final concentration) for 10 min prior to the addition of 25 μl ^35S-Met for 5 min and stimulation with DHPG (100 μM final concentration) for 15 min. Samples were processed as described in the preceding paragraph.
To further assess FMRP regulation of APP levels in brain, cortical SN were prepared from WT mice and overall protein synthesis analyzed in response to DHPG (100 μM)-induced mGluR5 activation. SN were metabolically active as assessed by ^35S-Met incorporation. […]
These conclusions were tested by assessing the effects on APP translation of contacting SN with a group 1 mGluR5 antagonist, 2-methyl-6-(phenylethynyl)-pyridine (MPEP). […] To assess the effect of MPEP, a specific mGluR5 antagonist, on DHPG stimulation of de novo APP synthesis, SN were pre-treated with 10 μM MPEP for 10 min prior to the addition of ^35S-Met for 5 min and stimulation with 100 μM DHPG for 15 min. ^35S-Met-labeled APP was immunoprecipitated with anti-APP antibodies and analyzed by SDS-PAGE. […]

[1] = humans, cited from earlier work
[2] = test system: Aβ1-40 and Aβ1-42 in Fmr-1 KO mouse brain; test: Brain region Aβ ELISA after fenobam-supplemented diet in Fmr-1 KO mice
Protocol: Fmr-1 KO mice were fed placebo or fenobam-supplemented lab diet for two months prior to harvesting brains for ELISA assays. Homogenates of hippocampus (H), cortex (Cx) and cerebellum (Cb) were analyzed by ELISA for Aβ1-40 and Aβ1-42. Data were plotted as a percentage of Aβ compared to levels in control mouse hippocampus. C: control, F: Fenobam.
Fmr-1 KO mice were fed placebo or fenobam-supplemented lab diet for one month prior to harvesting brains for ELISA assays. Homogenates of hippocampus (H), cortex (Cx) and cerebellum (Cb) were analyzed by ELISA for Aβ1-40 and Aβ1-42. Data were plotted as a percentage of Aβ compared to levels in control mouse hippocampus.

anxiety in rats = settings: cited from earlier work
rat mGluR1a = rat mGluR1a (Rattus norvegicus, UniProt P23385); settings: doses up to 10 μm; cited from earlier work
rat mGluR7a = rat mGluR7a (Rattus norvegicus, UniProt P35400); settings: doses up to 10 μm; cited from earlier work
[3] = test system: Aβ1-40 and Aβ1-42 in Tg2576 mouse brain; test: Brain Aβ ELISA after chronic fenobam-supplemented diet in Tg2576 mice; settings: one month
Protocol: FIG. 12 is a graph illustrating the effects of fenobam treatment in Tg2576 mice. Tg2576 mice were fed placebo or fenobam-supplemented lab diet for one month prior to harvesting brains for ELISA assays. For chronic dosing, the diet was supplemented with 0.2 g fenobam per kg lab diet and colored red for visual differentiation with the placebo food. Whole brain homogenates from control and fenobam-treated mice were analyzed by ELISA for Aβ1-40 (left) and Aβ1-42 (right). Data were plotted as ng/mL Aβ per μg soluble brain lysate. […] The left bar in each group represents Aβ levels in mice fed with placebo food; and the right bar in each group represents Aβ levels in mice fed with fenobam-supplemented food.
(§1) Mice were fed a fenobam-supplemented mouse food that was a purified ingredient diet formulated by Research Diets, Inc. (New Brunswick, N.J.) to match Purina 5015 lab diet in protein, carbohydrate and fat calories. For chronic dosing, the diet was supplemented with 0.2 g fenobam per kg lab diet and colored red for visual differentiation with the placebo food.
After one month of chronic fenobam dosing, brain tissue was harvested and Aβ levels measured. Specifically assessed by ELISA were human (expressed from the APPSwe transgene) and mouse (endogenous) Aβ1-40 and Aβ1-42 levels.

rat mGluR4a = rat mGluR4a (Rattus norvegicus, UniProt P31423); settings: doses up to 10 μm; cited from earlier work
[4] = Tolerability of fenobam-supplemented diet in Tg2576 mice; assay type: in vivo
Description: as §1

anxiety in mice = settings: cited from earlier work
rat mGluR8a = rat mGluR8a (Rattus norvegicus, UniProt P70579); settings: doses up to 10 μm; cited from earlier work
rat mGluR2 = rat mGluR2 (Rattus norvegicus, UniProt P31421); settings: doses up to 10 μm; cited from earlier work
anxiety in humans = settings: cited from earlier work
mGluR5 = mGluR5 (Homo sapiens, UniProt P41594); settings: shared allosteric modulatory site; cited from earlier work
[5] = test system: audiogenic seizures in mice; test: Audiogenic seizure (AGS) testing; assay type: in vivo, mouse; settings: treated (immunized or Purina + drug)

rat mGluR1a, sequence (P23385 19-1199): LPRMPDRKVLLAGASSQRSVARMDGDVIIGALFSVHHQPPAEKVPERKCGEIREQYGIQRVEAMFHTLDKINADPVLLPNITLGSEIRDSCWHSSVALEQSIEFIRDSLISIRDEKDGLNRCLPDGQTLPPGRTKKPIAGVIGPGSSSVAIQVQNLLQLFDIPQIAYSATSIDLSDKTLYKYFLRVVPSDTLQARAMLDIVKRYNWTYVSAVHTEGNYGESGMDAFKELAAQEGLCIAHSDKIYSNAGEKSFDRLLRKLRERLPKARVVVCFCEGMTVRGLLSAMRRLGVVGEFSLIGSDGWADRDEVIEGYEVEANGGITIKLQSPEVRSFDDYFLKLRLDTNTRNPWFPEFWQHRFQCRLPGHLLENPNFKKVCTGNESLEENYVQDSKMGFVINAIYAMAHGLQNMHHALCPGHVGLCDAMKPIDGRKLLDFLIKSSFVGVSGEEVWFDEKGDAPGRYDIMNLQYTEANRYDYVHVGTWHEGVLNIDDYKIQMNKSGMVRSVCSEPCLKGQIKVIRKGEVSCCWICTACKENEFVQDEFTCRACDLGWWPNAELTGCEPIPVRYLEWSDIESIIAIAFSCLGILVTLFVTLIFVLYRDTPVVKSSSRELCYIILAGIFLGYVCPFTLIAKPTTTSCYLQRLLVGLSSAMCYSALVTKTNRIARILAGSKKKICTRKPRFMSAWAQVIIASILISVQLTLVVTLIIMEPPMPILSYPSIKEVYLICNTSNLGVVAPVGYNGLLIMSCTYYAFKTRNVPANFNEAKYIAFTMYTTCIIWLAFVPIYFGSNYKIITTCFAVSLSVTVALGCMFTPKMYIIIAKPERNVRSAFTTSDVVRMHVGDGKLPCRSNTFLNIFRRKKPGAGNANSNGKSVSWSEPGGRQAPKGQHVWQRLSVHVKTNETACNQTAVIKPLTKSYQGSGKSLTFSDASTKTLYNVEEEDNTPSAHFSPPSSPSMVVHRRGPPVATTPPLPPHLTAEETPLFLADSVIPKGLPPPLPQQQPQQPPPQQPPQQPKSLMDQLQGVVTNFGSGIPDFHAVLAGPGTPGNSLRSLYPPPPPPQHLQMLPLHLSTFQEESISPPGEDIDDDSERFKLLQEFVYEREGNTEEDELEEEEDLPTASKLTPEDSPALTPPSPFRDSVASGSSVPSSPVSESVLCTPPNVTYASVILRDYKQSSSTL
rat mGluR7a, sequence (P35400 35-915): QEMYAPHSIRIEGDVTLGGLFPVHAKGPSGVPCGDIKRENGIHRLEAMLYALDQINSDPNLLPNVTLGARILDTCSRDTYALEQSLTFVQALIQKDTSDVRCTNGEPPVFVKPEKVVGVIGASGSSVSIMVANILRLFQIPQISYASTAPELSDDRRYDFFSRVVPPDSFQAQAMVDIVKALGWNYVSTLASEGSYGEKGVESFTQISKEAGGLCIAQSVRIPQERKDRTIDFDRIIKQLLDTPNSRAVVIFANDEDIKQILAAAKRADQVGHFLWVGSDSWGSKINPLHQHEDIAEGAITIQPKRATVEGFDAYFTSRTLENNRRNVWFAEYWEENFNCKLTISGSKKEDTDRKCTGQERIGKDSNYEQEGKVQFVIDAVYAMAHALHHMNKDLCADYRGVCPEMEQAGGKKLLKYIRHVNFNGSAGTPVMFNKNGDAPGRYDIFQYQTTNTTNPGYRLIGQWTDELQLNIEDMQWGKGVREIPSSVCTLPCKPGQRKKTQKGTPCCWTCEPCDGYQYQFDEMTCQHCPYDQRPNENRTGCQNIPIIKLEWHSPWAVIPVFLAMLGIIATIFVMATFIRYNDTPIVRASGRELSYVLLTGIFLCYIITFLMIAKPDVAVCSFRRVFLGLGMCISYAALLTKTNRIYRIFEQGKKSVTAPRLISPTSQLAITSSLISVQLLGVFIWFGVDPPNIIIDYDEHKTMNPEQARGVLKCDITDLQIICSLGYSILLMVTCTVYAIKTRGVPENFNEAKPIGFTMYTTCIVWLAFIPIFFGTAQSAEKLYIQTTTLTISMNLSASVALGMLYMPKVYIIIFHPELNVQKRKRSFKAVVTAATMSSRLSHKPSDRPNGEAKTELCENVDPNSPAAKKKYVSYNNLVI
rat mGluR4a, sequence (P31423 33-912): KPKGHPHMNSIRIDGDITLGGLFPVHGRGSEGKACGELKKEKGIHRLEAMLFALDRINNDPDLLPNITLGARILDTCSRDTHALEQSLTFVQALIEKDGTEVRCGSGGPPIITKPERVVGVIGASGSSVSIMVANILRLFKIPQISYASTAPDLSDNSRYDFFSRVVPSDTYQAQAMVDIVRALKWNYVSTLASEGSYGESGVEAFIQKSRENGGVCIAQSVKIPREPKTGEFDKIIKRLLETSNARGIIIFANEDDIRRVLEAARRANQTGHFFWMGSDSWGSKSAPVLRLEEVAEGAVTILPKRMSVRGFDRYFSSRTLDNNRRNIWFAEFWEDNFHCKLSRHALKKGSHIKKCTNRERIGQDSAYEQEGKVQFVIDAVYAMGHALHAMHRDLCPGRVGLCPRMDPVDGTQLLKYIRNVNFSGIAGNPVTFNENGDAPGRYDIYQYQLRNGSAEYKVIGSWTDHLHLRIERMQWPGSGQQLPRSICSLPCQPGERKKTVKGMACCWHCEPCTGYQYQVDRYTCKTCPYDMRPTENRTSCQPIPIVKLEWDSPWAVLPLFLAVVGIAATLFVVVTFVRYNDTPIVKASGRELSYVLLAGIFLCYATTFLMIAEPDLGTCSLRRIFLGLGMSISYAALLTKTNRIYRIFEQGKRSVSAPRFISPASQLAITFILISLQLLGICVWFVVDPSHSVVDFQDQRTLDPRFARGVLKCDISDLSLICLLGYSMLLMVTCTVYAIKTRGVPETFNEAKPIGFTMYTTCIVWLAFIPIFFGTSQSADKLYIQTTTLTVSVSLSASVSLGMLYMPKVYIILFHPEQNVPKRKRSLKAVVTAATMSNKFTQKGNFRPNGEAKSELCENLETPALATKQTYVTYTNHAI
rat mGluR8a, sequence (P70579 34-908): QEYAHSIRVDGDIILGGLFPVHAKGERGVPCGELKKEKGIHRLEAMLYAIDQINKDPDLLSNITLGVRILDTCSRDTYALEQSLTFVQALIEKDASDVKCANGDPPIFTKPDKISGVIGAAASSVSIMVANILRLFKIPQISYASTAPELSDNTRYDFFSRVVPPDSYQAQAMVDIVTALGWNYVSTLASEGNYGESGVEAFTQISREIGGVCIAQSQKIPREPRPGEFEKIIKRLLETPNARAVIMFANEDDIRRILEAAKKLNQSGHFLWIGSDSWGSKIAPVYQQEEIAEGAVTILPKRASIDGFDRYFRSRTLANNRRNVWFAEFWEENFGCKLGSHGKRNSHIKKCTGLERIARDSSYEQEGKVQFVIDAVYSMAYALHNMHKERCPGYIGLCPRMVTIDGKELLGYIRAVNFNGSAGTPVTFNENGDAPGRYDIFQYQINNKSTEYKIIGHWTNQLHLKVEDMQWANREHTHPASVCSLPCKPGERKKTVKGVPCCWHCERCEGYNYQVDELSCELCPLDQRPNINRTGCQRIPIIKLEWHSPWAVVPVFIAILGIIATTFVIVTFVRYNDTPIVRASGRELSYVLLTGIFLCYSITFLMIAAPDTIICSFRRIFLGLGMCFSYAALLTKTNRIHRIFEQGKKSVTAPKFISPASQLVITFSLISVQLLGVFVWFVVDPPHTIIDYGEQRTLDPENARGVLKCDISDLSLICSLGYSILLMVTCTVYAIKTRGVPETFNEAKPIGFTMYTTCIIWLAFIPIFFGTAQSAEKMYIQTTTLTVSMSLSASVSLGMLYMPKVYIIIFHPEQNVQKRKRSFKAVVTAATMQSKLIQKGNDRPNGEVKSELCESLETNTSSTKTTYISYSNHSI
rat mGluR2, sequence (P31421 19-872): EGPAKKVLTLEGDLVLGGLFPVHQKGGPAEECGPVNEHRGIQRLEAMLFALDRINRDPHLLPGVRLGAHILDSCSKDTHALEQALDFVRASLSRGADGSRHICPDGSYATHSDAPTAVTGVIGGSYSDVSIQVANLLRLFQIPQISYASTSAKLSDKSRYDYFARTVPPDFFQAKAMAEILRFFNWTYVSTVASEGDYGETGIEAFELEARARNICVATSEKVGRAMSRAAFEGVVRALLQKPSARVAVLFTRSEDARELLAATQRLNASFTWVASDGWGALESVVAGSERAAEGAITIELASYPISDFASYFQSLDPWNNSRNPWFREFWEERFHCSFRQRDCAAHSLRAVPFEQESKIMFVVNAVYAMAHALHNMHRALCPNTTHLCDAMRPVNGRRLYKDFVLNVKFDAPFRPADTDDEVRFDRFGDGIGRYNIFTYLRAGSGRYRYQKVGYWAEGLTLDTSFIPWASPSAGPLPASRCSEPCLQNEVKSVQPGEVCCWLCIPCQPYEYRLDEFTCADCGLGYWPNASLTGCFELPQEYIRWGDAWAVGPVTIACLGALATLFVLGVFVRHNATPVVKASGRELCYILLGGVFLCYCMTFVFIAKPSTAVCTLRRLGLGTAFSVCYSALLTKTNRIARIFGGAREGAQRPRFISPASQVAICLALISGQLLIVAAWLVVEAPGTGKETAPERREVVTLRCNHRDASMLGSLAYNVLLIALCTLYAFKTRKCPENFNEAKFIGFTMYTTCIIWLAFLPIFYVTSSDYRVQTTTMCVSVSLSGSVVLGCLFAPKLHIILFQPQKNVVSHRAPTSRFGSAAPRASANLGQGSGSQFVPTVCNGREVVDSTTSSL

COc1ccc(C[C@H]2NC[C@H](O)[C@H]2OC(C)=O)cc1 [anisomycin]
effect on mGluR activation of APP translation (APP translation in SN): blocked

CN1CC(=O)N=C1NC(=O)Nc1cccc(Cl)c1.O=S(=O)(O)O [fenobam]
side effects ([1]; therapeutically-effective dosages): no harmful side effects
side effects in one study (Friedmann et al., 1980) [1]: psycho-stimulating properties
decrease in Aβ1-42 in the cortex ([2]; fenobam food 1 month): 40%
Aβ1-42 in hippocampus and cortex ([2]; fenobam food 2 months): modest reductions
decrease in Aβ1-40 in cerebellum ([2]; fenobam food 2 months): 19%
decrease in Aβ1-40 in cortex ([2]; fenobam food 2 months): 26%
reduction in Aβ1-42 in the cerebellum ([2]; fenobam food 2 months): 4.2 fold
effect on anxiety (anxiety in rats): reduces anxiety
activity toward rat mGluR1a (rat mGluR1a): no activity
activity toward rat mGluR7a (rat mGluR7a): no activity
mouse Aβ1-42 levels ([3]; Tg2576, fenobam diet): no change
mouse Aβ1-40 level in brain ([3]; Tg2576 males on fenobam food): 60 ng/mL/µg
human Aβ levels, control vs fenobam-fed ([3]; Tg2576 mice, 0.2 g fenobam per kg diet): No change
decrease in mouse Aβ1-40 levels ([3]; male Tg2576, 0.2 g fenobam per kg diet): 11.5 fold
activity toward rat mGluR4a (rat mGluR4a): no activity
premature death ([4]; Tg2576 mice, 0.2 g fenobam per kg diet, chronic dosing): no incidences of premature death
adverse side effects ([4]; mouse, in vivo): No adverse side effects
weight gain ([4]; mouse, in vivo): normal weight gain
effect on anxiety (anxiety in mice): reduces anxiety
activity toward rat mGluR8a (rat mGluR8a): no activity
activity toward rat mGluR2 (rat mGluR2): no activity
effect on anxiety (anxiety in humans): reduces anxiety
mGluR5 antagonist character (mGluR5): potent and highly selective noncompetitive antagonists
% Death ([5]; DS (Ts65Dn) mice): 0%
% WR ([5]; DS (Ts65Dn) mice): 58%
% AGS ([5]; DS (Ts65Dn) mice, listed as Fenobaum): 0%
% AGS ([5]; DS (Ts65Dn) mice, listed as fenobaum): attenuates seizures
% AGS ([5]; WT littermates of DS model): 0%
% Death ([5]; WT littermates of DS model): 0%
% WR ([5]; WT littermates of DS model): 0%

— patent US20130149721A1, “Methods for Inhibiting Amyloid Precursor Protein and Beta-Amyloid Production and Accumulation” (WISCONSIN ALUMNI RESEARCH FOUNDATION, priority 2008, published 2013)
